Measurements: patent US11857644B2, “Multi-signal fluorescent probe for early diagnosis of tumors, and preparation and use thereof” (Hunan Cancer Hospital, priority 2022, dated 2024)

How the values were obtained:
[1] = Fluorescence detection of Na2S2 by the probe (limit of detection); conditions: organic phase:aqueous phase (PBS) 5:5, room temperature
Description: (§1) The multi-signal fluorescent probe was dissolved with dimethyl sulfoxide (DMSO) to obtain a 1 mM probe solution. A 1 mM ONOO^− aqueous solution and a 1 mM Na2S2 aqueous solution were prepared.
(§2) 20 μL of the 1 mM probe solution, 980 μL of analytically pure CH3CN, the required amount of the 1 mM ONOO^− or Na2S2 aqueous solution and the required amount of phosphate buffered saline (PBS) were added into a 2 mL sample tube. A volume ratio of an organic phase to an aqueous phase was kept at 5:5 for all tests (a total volume of each test sample was 2 mL).
L of the 1 mM probe solution, 980 μL of analytically pure CH3CN, 20 μL of the 1 mM ONOO^− aqueous solution and 980 μL of PBS were added into a 2 mL sample tube. […] Then, the fluorescence emission intensity of the reaction mixture could be measured under the 350 nm excitation wavelength. […] Fluorescence spectra of the multi-signal fluorescent probe in the detection of peroxynitrite and sodium disulfide were shown in FIG. 2. […]
The multi-signal fluorescent probe for reactive oxygen was dissolved in a solution, in which a volume ratio of DMSO to the aqueous phase was 5:5. […] Accordingly, a specific analyte can be detected by the specific excitation and fluorescence emission signal. The ONOO^− and Na2S2 can be distinguished by using different excitation wavelengths and fluorescence emission signals. […]

[2] = Fluorescence detection of ONOO^− by the probe (limit of detection); conditions: organic phase:aqueous phase (PBS) 5:5, room temperature, 15 min
Description: as §1, §2
For example, when it was required to explore the fluorescence intensity of the multi-signal fluorescent probe after reacted with […] ONOO^−, the experiment was formulated as follows.
L of the 1 mM probe solution, 980 μL of analytically pure CH3CN, 20 μL of the 1 mM ONOO^− aqueous solution and 980 μL of PBS were added into a 2 mL sample tube. The reaction mixture was mixed evenly under shaking at room temperature for 15 min. Then, the fluorescence emission intensity of the reaction mixture could be measured under the 350 nm excitation wavelength. Other steps were performed as above. The limit of detection (LOD) for ONOO^− was 42.12 nM, and the LOD for Na2S2 was 38.45 nM. Fluorescence spectra of the multi-signal fluorescent probe in the detection of peroxynitrite and sodium disulfide were shown in FIG. 2. […]

[3] = Fluorescence response selectivity against other species; conditions: OH, t-BuO, 1O2, NO, GSH, Cys, Hcy, SO2, NAC, H2S, halides, amino acids, NaHS, NaHSO3, EtSH, PhSH, n-Butylamine, aniline
Description: Regarding a method for detecting ONOO^− and Na2S2 in cells, unless otherwise specified, a probe molecule is dissolved at room temperature for analytical detection, where a volume ratio of an organic phase to an aqueous phase is 5:5. The organic phase is acetonitrile (CH3CN), and the aqueous phase is formed by PBS (pH=7.4) and an aqueous solution of the analyte.
The multi-signal fluorescent probe for reactive oxygen was dissolved in a solution, in which a volume ratio of […] to the aqueous phase was 5:5. The multi-signal fluorescent probe emitted 492 nm green light under 380 nm excitation wavelength after reacted with ONOO^−, and emitted 548 nm yellow light under 410 nm excitation wavelength after reacted with Na2S2. Accordingly, a specific analyte can be detected by the specific excitation and fluorescence emission signal. The ONOO^− and Na2S2 can be distinguished by using different excitation wavelengths and fluorescence emission signals. […] The LOD for ONOO^− is 42.12 nM, and the LOD for Na2S2 is 38.45 nM. In summary, the multi-signal fluorescent probe can realize the high-sensitivity discrimination and detection of ONOO^− and Na2S2.

CCN1c2ccccc2Sc2cc3c(Cl)cc(=O)oc3cc21 [multi-signal fluorescent probe, 4-chloro-11-ethylpyrano[2,3-b]phenothiazin-2(11H)-one]
LOD for Na2S2 [1]: 38.45 nM | limit of detection (LOD) for ONOO^− [2]: 42.12 nM | fluorescence response to interfering species [3]: no significant response
